Experiment: recombinant UMI read abundance after kanamycin selection (control-corrected) (log10(CPM+1)); higher = more efficient recombination; extreme values may be limits of the assay; sequences stand for … in AGTGCAGAGAAAATCGGCCAGTTTTCTCTGCCTGCAGTCCGCATGCCGTGGGACCCCTTGGGTTCTAACCTGTTGCCTAGATTTATGCAGCGGACTGCCTTTCTCCCAAAGTGATAAACCGG…AGGTTGGTTTCACT; site = the 11-nt donor
Outline: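 Reported values are log10(CPM+1) from a pooled Escherichia coli screen of donor and donor-binding-loop pairs for the IS621 bridge recombinase. Selection used IPTG (0.07 mM) plus kanamycin, against unselected plating, each in two replicates. Recombinant UMIs were amplified across the donor–target junction, sequenced, converted to CPM, averaged over replicates and scaled by control-derived factors.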
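Note: IS621 bridge recombinase in Escherichia coli cells against a fixed T5 target plasmid.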

Sequence	recombinant UMI read abundance (log10)
AGCTCAGCATGGACCGGTTTTCCCGGTAATCCGTATTTGGG (site AGCTTAGCTCC)	0.0288
AGCTCAGCATGGACCGGTTTTCCCGGTAATCCGTATTTGGG (site AGGTCAGCTCC)	0.00833
AGCTCAGCATGGACCGGTTTTCCCGGTAATCCGTATTTGGG (site AGTTCAGCTCC)	0.0207
AGCTCAGCATGGACCGGTTTTCCCGGTAATCCGTATTTGGG (site ATCTCAGCTCC)	0.019
AGCTCAGCATGGACCGGTTTTCCCGGTAATCCGTATTTGGG (site CGCTCAGCTCC)	0.299
AGCTCAGCATGGACCGGTTTTCCCGGTAATCCGTATTTGGG (site GGCTCAGCTCC)	0.0255
AGCTCAGCATGGACCGGTTTTCCCGGTAATCCGTATTTGGG (site TGCTCAGCTCC)	0.366
AGCTCAGCATGGACCGGTTTTCCCGGTAATCCGTATTTGGT (site AGCTCAGCTAC)	1.27
AGCTCAGCATGGACCGGTTTTCCCGGTAATCCGTATTTGGT (site AGCTCAGCTCC)	0.0126
AGCTCAGCATGGACCGGTTTTCCCGGTAATCCGTATTTGGT (site AGCTCAGCTGC)	0
AGCTCAGCATGGACCGGTTTTCCCGGTAATCCGTATTTGGT (site AGCTCAGCTTC)	0.0112
AGCTCCGCATGGACCGGTTTTCCCGGTAATCCGTATTTGGG (site AGCTCAGCTCC)	0.00775
AGCTCCGCATGGACCGGTTTTCCCGGTAATCCGTATTTGGG (site AGCTCCGCTCC)	0.211
AGCTCCGCATGGACCGGTTTTCCCGGTAATCCGTATTTGGG (site AGCTCGGCTCC)	0.0125
AGCTCCGCATGGACCGGTTTTCCCGGTAATCCGTATTTGGG (site AGCTCTGCTCC)	0.00972
AGCTGGGCATGGACCGGTTTTCCCGGTAATCCGTATTTGTA (site AGCTGGGCTTA)	2.76

Sequence	recombinant UMI read abundance (log10)
AGCTTAGCATGGACCGGTTTTCCCGGTAATCCGTATTTGCC (site AGCTTAGCTGG)	0
AGCTTCCCATGGACCGGTTTTCCCGGTAATCCGTATTTGTG (site AGATTCCCTCA)	0.114
AGCTTCCCATGGACCGGTTTTCCCGGTAATCCGTATTTGTG (site AGCTTCCCTCA)	0.00566
AGCTTCCCATGGACCGGTTTTCCCGGTAATCCGTATTTGTG (site AGGTTCCCTCA)	0.00784
AGCTTCCCATGGACCGGTTTTCCCGGTAATCCGTATTTGTG (site AGTTTCCCTCA)	0.0209
AGCTTTCCATGGACCGGTTTTCCCGGTAATCCGTATTTGGA (site AGCTTTCCTTC)	0.00277
AGGAAAACATGGACCGGTTTTCCCGGTAATCCGTATTTGCA (site AGGAAAACTTG)	0.959
AGGAAAACATGGACCGGTTTTCCCGGTAATCCGTATTTGCA (site AGGAACACTTG)	0
AGGAAAACATGGACCGGTTTTCCCGGTAATCCGTATTTGCA (site AGGAAGACTTG)	0
AGGAAAACATGGACCGGTTTTCCCGGTAATCCGTATTTGCA (site AGGAATACTTG)	0
AGGAAAACATGGACCGGTTTTCCCGGTAATCCGTATTTGTA (site AGGAAAACTTA)	1.92
AGGAAAACATGGACCGGTTTTCCCGGTAATCCGTATTTGTA (site AGGAAGACTTG)	0
AGGAACACATGGACCGGTTTTCCCGGTAATCCGTATTTGCA (site AGGAAAACTTG)	0
AGGAACACATGGACCGGTTTTCCCGGTAATCCGTATTTGCA (site AGGAACACTTG)	2.52
AGGAACACATGGACCGGTTTTCCCGGTAATCCGTATTTGCA (site AGGAAGACTTG)	0
AGGAACACATGGACCGGTTTTCCCGGTAATCCGTATTTGCA (site AGGAATACTTG)	0.211
